Assay results reported in PMC5439695 (PLoS ONE, 2017).
Where “and” joins values, the source holds several entries; their conditions need not be identical. Equal entries are not always repeated. Where two headings read alike, the source gives them in different places.

Assays:
[1] = tested on: HEK293 and HepG2 cell lines
[2] = tested on: HepG2 cells; assay: CellTox Green Cytotoxicity Assay (flor) in HepG2, HepG2[flor]; assay type: cell-based, human; details: HepG2, flor, n=136, read-out: EC50
[3] = tested on: HEK293 cells; details: HEK293, glo, mean and SD, n=136
[4] = tested on: HEK293 cells; details: HEK293, flor, mean and SD, n=136
[5] = tested on: HepG2 cells; details: for IC50: HepG2, glo, n=136
[6] = POD potency, max over real-time cytotoxicity assays
[7] = POD potency, median over real-time cytotoxicity assays
[8] = HEK293[glo], HEK293[flor], HepG2[glo], HepG2[flor]

Compound	Cyto(realtime)_max [1, 6]	Cyto(realtime)_median [1, 7]	further results
CCCCC(CC)COC(=O)c1ccc(O)cc1 (stereo not drawn) [2-Ethylhexylparaben]	4.68 log10(M)*-1	4.25 log10(M)*-1	
OCC(c1ccc(Cl)cc1)c1ccc(Cl)cc1 [2,2-Bis(4-chlorophenyl)ethanol]	4.70 log10(M)*-1	4.57 log10(M)*-1	
CCCCCCCCCCCCCC[P+](CCCC)(CCCC)CCCC.CCCCCCCCCCCCc1ccc(S(=O)(=O)[O-])cc1	6.97 log10(M)*-1	5.03 log10(M)*-1	
C=CC1(C)OC(=O)N(c2cc(Cl)cc(Cl)c2)C1=O (stereo not drawn) [vinclozolin, reference compound]			cytotoxicity kinetics activity profile in the four real-time cytotoxicity assays [1]: no activity in all four real-time cytotoxicity assays
CCCCCCCC[N+](CCCCCCCC)(CCCCCCCC)CCCCCCCC [tetra-N-octylammonium bromide, reference compound]			EC50 ([2]; 8 hrs): 7.59 ± 1.48 µM; EC50 ([2]; 16 hrs): 6.18 ± 1.27 µM; EC50 ([2]; 24 hrs): 5.87 ± 1.1 µM; EC50 ([2]; 32 hrs): 6.43 ± 1 µM; EC50 ([2]; 40 hrs): 6.4 ± 0.96 µM; IC50 ([3]; 8 hrs): 5.91 ± 1.26 µM; IC50 ([3]; 16 hrs): 2.53 ± 0.74 µM; IC50 ([3]; 24 hrs): 1.34 ± 0.52 µM; IC50 ([3]; 32 hrs): 0.87 ± 0.44 µM; IC50 ([3]; 40 hrs): 0.79 ± 0.32 µM; EC50 ([4]; 8 hrs): 9.88 ± 2.1 µM; EC50 ([4]; 16 hrs): 8.01 ± 1.52 µM; EC50 ([4]; 24 hrs): 6.06 ± 1.11 µM; EC50 ([4]; 32 hrs): 6.8 µM and 6.73 µM; EC50 ([4]; 40 hrs): 7.69 ± 1.76 µM; IC50 ([5]; 8 hrs): 7.9 ± 1.62 µM; IC50 ([5]; 16 hrs): 7.53 ± 1.44 µM; IC50 ([5]; 24 hrs): 7.79 ± 1.54 µM; IC50 ([5]; 32 hrs): 8.05 ± 1.68 µM; IC50 ([5]; 40 hrs): 8.18 ± 1.91 µM
CC(C)(C)CC(C)(C)c1ccc(O)cc1 [4-(1,1,3,3-tetramethylbutyl)phenol, reference compound]			cytotoxicity kinetics activity profile in the four real-time cytotoxicity assays [1, 8]: quickly reach the maximum cytotoxic effect in at least three assays
C.I. Solvent Black 5	5.68 log10(M)*-1	4.42 log10(M)*-1	
Bis(tributyltin)oxide			Cyto(realtime)_max [1]: 7.21 log10(M)*-1; Cyto(realtime)_median [1]: 6.40 log10(M)*-1
CCCCCCCCCCCCn1cc[n+](C)c1.F[B-](F)(F)F	6.57 log10(M)*-1	4.55 log10(M)*-1	
CCCCCCCCCCCCCC[P+](CCCCCC)(CCCCCC)CCCCCC.N#C[N-]C#N	5.83 log10(M)*-1	4.81 log10(M)*-1	
Triethyltin bromide			Cyto(realtime)_max [1]: 6.72 log10(M)*-1; Cyto(realtime)_median [1]: 5.42 log10(M)*-1
N=C1NC(=N)c2cc3ccccc3cc21 [1,3-Diiminobenz(f)isoindoline]	4.75 log10(M)*-1	4.40 log10(M)*-1	
C=C(c1ccc(C(=O)O)cc1)c1cc2c(cc1C)C(C)(C)CCC2(C)C [Bexarotene]			Cyto(realtime)_max [1]: 4.68 log10(M)*-1; Cyto(realtime)_median [1]: 4.23 log10(M)*-1
CCCCCCCCCCCCn1cc[n+](C)c1.O=S(=O)([O-])C(F)(F)F	6.68 log10(M)*-1	4.57 log10(M)*-1	
CCCCCCCCCCCCCC[n+]1ccn(C)c1.[Cl-]	6.67 log10(M)*-1	4.69 log10(M)*-1	
CC/C(=C(\c1ccc(O)cc1)c1ccc(OCCN(C)C)cc1)c1ccccc1 [(Z)-4-Hydroxytamoxifen]	4.89 log10(M)*-1	4.45 log10(M)*-1	
CCCCCCCCCCCCn1cc[n+](C)c1.[Cl-] [1-Dodecyl-3-methylimidazolium chloride]	7.06 log10(M)*-1	4.44 log10(M)*-1	
CO[C@@]12[C@H](COC(N)=O)C3=C(C(=O)C(C)=C(N)C3=O)N1C[C@@H]1N[C@@H]12 [mitomycin C, reference compound]			activity in the assay (cytotoxic effect) [5]: active
CC=O [Acetaldehyde]	6.67 log10(M)*-1	4.54 log10(M)*-1	
O=[N+]([O-])C1(Br)COCOC1 [5-Bromo-5-nitro-1,3-dioxane]	4.72 log10(M)*-1	4.41 log10(M)*-1	
CCCCCCCCCCCCCCCC[N+](C)(C)C.[Cl-]	5.58 log10(M)*-1	4.79 log10(M)*-1	
1-Ethyl-3-methylimidazolium diethylphosphate			Cyto(realtime)_max [1]: 6.32 log10(M)*-1; Cyto(realtime)_median [1]: 4.65 log10(M)*-1
CCCCCCCCCCCCCC[N+](C)(C)C.[Cl-]	5.94 log10(M)*-1	4.88 log10(M)*-1	
CCCCCCCCCCCCCCCCn1cc[n+](C)c1.F[B-](F)(F)F	6.28 log10(M)*-1	4.62 log10(M)*-1	
Cl.Cl.Nc1ccc(-c2ccc(N)c(Cl)c2)cc1Cl [3,3'-Dichlorobenzidine dihydrochloride]	5.37 log10(M)*-1	4.59 log10(M)*-1	
ClC(Cl)=C(c1ccc(Cl)cc1)c1ccc(Cl)cc1 [p,p'-DDE, reference compound]			cytotoxicity kinetics activity profile in the four real-time cytotoxicity assays [1, 8]: quickly reach the maximum cytotoxic effect in at least three assays
CCCC[n+]1ccc(C)cc1.[Cl-] [1-Butyl-4-methylpyridinium chloride]	5.01 log10(M)*-1	4.39 log10(M)*-1	
C[C@]12CC[C@@H]3c4ccc(O)cc4C[C@@H](CCCCCCCCC[S+]([O-])CCCC(F)(F)C(F)(F)F)[C@H]3[C@@H]1CC[C@@H]2O (stereo partly drawn) [fulvestrant, reference compound]			cytotoxicity kinetics activity profile in the four real-time cytotoxicity assays ([1]; human): solely active, HEK293[glo]
